Results reported in US20240391959A1, “BICYCLIC PEPTIDE LIGANDS […] FOR TRANSFERRIN RECEPTOR 1 (TfR1)” (BicycleTx Limited, priority 2020, published 2024).
Read-outs that look alike come from different tables or passages of the source. Starred links: 1 amine or outer side, 2 acyl side, 3 side chain; linkers in the order of their positions; H or OH if unused. Positions of bridges follow the written chain, without caps; N, C: chain ends. Residues, ends and D or L forms follow the SMILES beside them. TATB = O=C(C[*:1])N1CN(C(=O)C[*:2])CN(C(=O)C[*:3])C1

Columns and labels:
Type in all cases: binding
[1] = target: cynomolgus TfR1
[2] = target: T1, human TfR1 (Homo sapiens, UniProt P02786); assay: biochemical; parameters: His6-tagged TfR1 (a.a. 89-760) (ACRO Biosystems, CD1-H5243 and TFR-C524a); His6; purchased R&D Systems or Acro Biosystems 2474-TR or CD1-H5243
T1 sequence (P02786 89-760): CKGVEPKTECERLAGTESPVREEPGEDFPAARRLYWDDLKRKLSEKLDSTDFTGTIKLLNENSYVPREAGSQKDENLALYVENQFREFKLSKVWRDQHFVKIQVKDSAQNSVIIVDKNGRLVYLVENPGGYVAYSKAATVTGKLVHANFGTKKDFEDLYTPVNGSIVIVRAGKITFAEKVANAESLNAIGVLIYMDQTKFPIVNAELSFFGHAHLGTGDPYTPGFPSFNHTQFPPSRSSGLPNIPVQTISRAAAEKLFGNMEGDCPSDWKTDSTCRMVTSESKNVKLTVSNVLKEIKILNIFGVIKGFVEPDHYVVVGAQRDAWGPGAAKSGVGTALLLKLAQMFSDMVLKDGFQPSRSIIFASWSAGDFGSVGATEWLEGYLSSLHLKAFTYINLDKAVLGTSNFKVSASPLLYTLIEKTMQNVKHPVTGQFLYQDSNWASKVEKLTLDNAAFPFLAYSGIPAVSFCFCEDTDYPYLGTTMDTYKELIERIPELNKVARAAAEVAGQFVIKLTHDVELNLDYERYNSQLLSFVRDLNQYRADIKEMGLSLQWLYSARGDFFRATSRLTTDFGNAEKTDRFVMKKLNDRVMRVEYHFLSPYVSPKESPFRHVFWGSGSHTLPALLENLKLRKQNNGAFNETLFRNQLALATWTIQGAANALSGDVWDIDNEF

[3] = target: T1, human TfR1; assay: biochemical; parameters: His6-tagged TfR1 (a.a. 89-760) (ACRO Biosystems, CD1-H5243 and TFR-C524a); His6; purchased R&D Systems or Acro Biosystems 2474-TR or CD1-H5243; remark: listed apart in the source

SMILES: CC[C@H](C)[C@@H]1NC(=O)[C@@H]2CSCC(=O)N3CN(CN(C3)C(=O)CSC[C@H](NC(=O)[C@H](Cc3ccccc3)NC(=O)[C@H](CO)NC(=O)[C@@H](N)CCC(=O)O)C(=O)N[C@@H](CO)C(=O)N3CCC[C@H]3C(=O)N[C@@H](CC(=O)O)C(=O)N[C@@H](C)C(=O)N[C@@H](Cc3c[nH]cn3)C(=O)N[C@@H](CC(C)C)C(=O)NCC(=O)N2)C(=O)CSC[C@@H](C(=O)N[C@@H](C)C(N)=O)NC(=O)[C@H](Cc2ccc(O)cc2)NC(=O)[C@H](CO)NC1=O [BCY17113, ESF-(SEQ ID NO: 9)-A] (H-ESFCSPDAHLGCISYCA-NH2; linker 4-12-16 via TATB)
- Kd [1]: 1660 nM
- Kd ([2]; Human TfR1 Kd (nM)): 308 nM
- Ki ([3]; Geomean Ki (μM)): 0.103 µM

SMILES: CC[C@H](C)[C@@H]1NC(=O)[C@@H]2CSCC(=O)N3CN(CN(C3)C(=O)CSC[C@@H](C(=O)N[C@@H](C)C(N)=O)NC(=O)[C@H](Cc3ccc4ccccc4c3)NC(=O)[C@H](CO)NC1=O)C(=O)CSC[C@H](NC(=O)[C@H](C)N)C(=O)N[C@@H](CO)C(=O)N1CCC[C@H]1C(=O)N[C@@H](CC(=O)O)C(=O)N[C@@H](C)C(=O)N[C@@H](Cc1c[nH]cn1)C(=O)N[C@@H](CC(C)C)C(=O)NCC(=O)N2 [BCY16031, A-(SEQ ID NO: 36)-A]
- Kd [1]: 6480 nM
- Kd ([2]; read-out: Human TfR1 Kd): 68 nM
- Ki ([3]; Geomean Ki (μM)): 0.119 µM

SMILES: CC[C@H](C)[C@@H]1NC(=O)[C@@H]2CSCC(=O)N3CN(CN(C3)C(=O)CSC[C@@H](C(=O)N[C@@H](CCC(=O)O)C(=O)N[C@@H](Cc3c[nH]cn3)C(=O)N[C@@H](CCC(N)=O)C(=O)N[C@@H](CCC(=O)O)C(N)=O)NC(=O)[C@H](Cc3ccc(O)cc3)NC(=O)[C@H](CO)NC1=O)C(=O)CSC[C@H](NC(=O)[C@H](C)N)C(=O)N[C@@H](CO)C(=O)N1CCC[C@H]1C(=O)N[C@@H](CC(=O)O)C(=O)N[C@@H](C)C(=O)N[C@@H](Cc1c[nH]cn1)C(=O)N[C@@H](CC(C)C)C(=O)NCC(=O)N2 [BCY17119, A-(SEQ ID NO: 9)-EHQE] (H-ACSPDAHLGCISYCEHQE-NH2; linker 2-10-14 via TATB)
- Kd [1]: 5650 nM
- Kd ([2]; Human TfR1 Kd (nM)): 212 nM
- Ki ([3]; Geomean Ki (μM)): 0.16 µM

SMILES: CC[C@H](C)[C@@H]1NC(=O)[C@@H]2CSCC(=O)N3CN(CN(C3)C(=O)CSC[C@H](NC(=O)[C@H](CO)NC(=O)[C@@H](NC(=O)[C@@H](N)Cc3c[nH]cn3)[C@@H](C)O)C(=O)N[C@@H](CO)C(=O)N3CCC[C@H]3C(=O)N[C@@H](CC(=O)O)C(=O)N[C@@H](C)C(=O)N[C@@H](Cc3c[nH]cn3)C(=O)N[C@@H](CC(C)C)C(=O)NCC(=O)N2)C(=O)CSC[C@@H](C(=O)N[C@@H](C)C(N)=O)NC(=O)[C@H](Cc2ccc(O)cc2)NC(=O)[C@H](CO)NC1=O [BCY17111, HTS-(SEQ ID NO: 9)-A] (H-HTSCSPDAHLGCISYCA-NH2; linker 4-12-16 via TATB)
- Kd [1]: 907 nM
- Kd ([2]; Human TfR1 Kd (nM)): 8.3 nM
- Ki ([3]; Geomean Ki (μM)): 0.086 µM

SMILES: CC[C@H](C)[C@@H]1NC(=O)[C@@H]2CSCC(=O)N3CN(CN(C3)C(=O)CSC[C@@H](C(=O)N[C@@H](C)C(N)=O)NC(=O)[C@H](Cc3ccc(O)cc3)NC(=O)[C@H](CO)NC1=O)C(=O)CSC[C@H](NC(=O)[C@H](C)N)C(=O)N[C@@H](CO)C(=O)N1C[C@H](O)C[C@H]1C(=O)N[C@@H](CC(=O)O)C(=O)N[C@@H](C)C(=O)N[C@@H](Cc1c[nH]cn1)C(=O)N[C@@H](CC(C)C)C(=O)NCC(=O)N2 [BCY16047, A-(SEQ ID NO: 15)-A]
- Kd [1]: 4830 nM
- Kd ([2]; read-out: Human TfR1 Kd): 49 nM
- Ki ([3]; Geomean Ki (μM)): 0.133 µM
- Ki ([3]; Human TfR1 Ki (nM)): 0.042 µM

SMILES: CC[C@H](C)[C@@H]1NC(=O)[C@@H]2CSCC(=O)N3CN(CN(C3)C(=O)CSC[C@@H](C(=O)N3CCC[C@H]3C(=O)N[C@@H](Cc3c[nH]cn3)C(=O)N3CCC[C@H]3C(N)=O)NC(=O)[C@H](Cc3ccc(O)cc3)NC(=O)[C@H](CO)NC1=O)C(=O)CSC[C@H](NC(=O)[C@H](C)N)C(=O)N[C@@H](CO)C(=O)N1CCC[C@H]1C(=O)N[C@@H](CC(=O)O)C(=O)N[C@@H](C)C(=O)N[C@@H](Cc1c[nH]cn1)C(=O)N[C@@H](CC(C)C)C(=O)NCC(=O)N2 [BCY17115, A-(SEQ ID NO: 9)-PHP] (H-ACSPDAHLGCISYCPHP-NH2; linker 2-10-14 via TATB; N-terminus and C-terminus assumed)
- Kd [1]: 1240 nM
- Kd ([2]; Human TfR1 Kd (nM)): 60 nM
- Ki ([3]; Geomean Ki (μM)): 0.03 µM
- Ki ([3]; Human TfR1 Ki (nM)): 0.03 µM

SMILES: CC[C@H](C)[C@@H]1NC(=O)[C@@H]2CSCC(=O)N3CN(CN(C3)C(=O)CSC[C@@H](C(=O)N[C@@H](C)C(N)=O)NC(=O)[C@H](Cc3ccncc3)NC(=O)[C@H](CO)NC1=O)C(=O)CSC[C@H](NC(=O)[C@H](C)N)C(=O)N[C@@H](CO)C(=O)N1CCC[C@H]1C(=O)N[C@@H](CC(=O)O)C(=O)N[C@@H](C)C(=O)N[C@@H](Cc1c[nH]cn1)C(=O)N[C@@H](CC(C)C)C(=O)NCC(=O)N2 [BCY16032, A-(SEQ ID NO: 48)-A]
- Kd [1]: 30000 nM
- Kd ([2]; Human TfR1 Kd (nM)): 305 nM
- Ki ([3]; Geomean Ki (μM)): 0.654 µM

SMILES: CC[C@H](C)[C@@H]1NC(=O)[C@@H]2CSCC(=O)N3CN(CN(C3)C(=O)CSC[C@H](NC(=O)[C@H](CCSC)NC(=O)[C@H](Cc3c[nH]c4ccccc34)NC(=O)[C@@H](N)Cc3c[nH]cn3)C(=O)N[C@@H](CO)C(=O)N3CCC[C@H]3C(=O)N[C@@H](CC(=O)O)C(=O)N[C@@H](C)C(=O)N[C@@H](Cc3c[nH]cn3)C(=O)N[C@@H](CC(C)C)C(=O)NCC(=O)N2)C(=O)CSC[C@@H](C(=O)N[C@@H](C)C(N)=O)NC(=O)[C@H](Cc2ccc(O)cc2)NC(=O)[C@H](CO)NC1=O [BCY17110, HWM-(SEQ ID NO: 9)-A] (H-HWMCSPDAHLGCISYCA-NH2; linker 4-12-16 via TATB)
- Kd [1]: 232 nM
- Kd ([2]; Human TfR1 Kd (nM)): 15 nM
- Ki ([3]; Geomean Ki (μM)): 0.022 µM

SMILES: CC[C@H](C)[C@@H]1NC(=O)[C@@H]2CSCC(=O)N3CN(CN(C3)C(=O)CSC[C@@H](C(=O)N[C@@H](CCC(=O)O)C(=O)N3CCCC[C@H]3C(=O)N[C@@H](Cc3c[nH]c4ccccc34)C(N)=O)NC(=O)[C@H](Cc3ccc(O)cc3)NC(=O)[C@H](CO)NC1=O)C(=O)CSC[C@H](NC(C)=O)C(=O)N[C@@H](CO)C(=O)N1CCC[C@H]1C(=O)N[C@@H](CC(=O)O)C(=O)N[C@@H](C)C(=O)N[C@@H](Cc1c[nH]cn1)C(=O)N[C@@H](CC(C)C)C(=O)NCC(=O)N2 [BCY18039, Ac-(SEQ ID NO: 9)-E[Pip]W]
- Kd [1]: 819 nM
- Kd ([2]; Human TfR1 Kd (nM)): 8.6 nM
- Ki ([3]; Geomean Ki (μM)): 0.008 µM
- Ki ([3]; Human TfR1 Ki (nM)): 0.008 µM

SMILES: CC[C@H](C)[C@@H]1NC(=O)[C@@H]2CSCC(=O)N3CN(CN(C3)C(=O)CSC[C@H](NC(C)=O)C(=O)N[C@@H](CO)C(=O)N[C@@H](C)C(=O)N[C@@H](CC(=O)O)C(=O)N[C@@H](C)C(=O)N[C@@H](Cc3c[nH]cn3)C(=O)N[C@@H](CC(C)C)C(=O)NCC(=O)N2)C(=O)CSC[C@@H](C(N)=O)NC(=O)[C@H](Cc2ccc(O)cc2)NC(=O)[C@H](CO)NC1=O [BCY17987, Ac-(SEQ ID NO: 19)] (Ac-CSADAHLGCISYC-NH2; linker 1-9-13 via TATB)
- Kd [1]: 5140 nM
- Kd ([2]; Human TfR1 Kd (nM)): 50 nM
- Ki ([3]; Geomean Ki (μM)): 0.042 µM
- Ki ([3]; Human TfR1 Ki (nM)): 0.383 µM
